# Laboratory results from US20230045112A1, “DISULFIRAM AND OTHER REDOX-RELATED COMPOSITIONS FOR BRAIN TUMORS” (Texas Tech University System, priority 2014, published 2023).
# Key:
# MGMT [1] = biological target: T1, MGMT (Homo sapiens, UniProt P16455); design: endogenous in cells; host or cells: DAOY; conditions: cultured tumor cells; cited from earlier work
# T1 sequence (P16455 1-207): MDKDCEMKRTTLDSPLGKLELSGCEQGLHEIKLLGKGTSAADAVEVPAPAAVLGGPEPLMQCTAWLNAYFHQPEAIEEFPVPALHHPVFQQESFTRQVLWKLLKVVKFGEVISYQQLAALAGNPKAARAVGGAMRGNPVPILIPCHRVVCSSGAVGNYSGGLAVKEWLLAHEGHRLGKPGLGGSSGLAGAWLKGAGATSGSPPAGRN
# MGMT [2] = biological target: T1, MGMT; assay: MGMT activity and protein (western blot) in drug-treated T98G and UW228 brain tumor cells; format: cell-based; design: endogenous in cells; host or cells: UW228, T98G; conditions: UW228 cells
# Protocol: The DNA repair activity of MGMT was measured by the transfer of [3H]-labeled methyl groups from the O^6-position of guanine in the DNA substrate to the MGMT protein as described previously. The DNA substrate enriched in O6-methylguanine was prepared by reacting [3H]-methylnitrosourea (GE Healthcare, 60 Ci/mmol). Briefly, the cell pellets were washed with cold PBS, disrupted by sonication in the assay buffer (30 mM Tris-HCl pH 7.5, 0.5 mM DTT, 0.5 mM EDTA, 5% glycerol, and 20 μM spermidine) and centrifuged. The extracts (50-150 μg protein) were supplemented with the [3H]-DNA (10,000 cpm) and incubated at 37° C. The reactions were terminated by the addition of TCA, the DNA substrate was hydrolyzed at 80° C., and following filtration on glass fiber discs; the radioactivity present in protein precipitates was quantitated.
# After trypsinization, the cell pellets were washed with cold PBS, and subjected to sonication in 50 mM Tris-HCl (pH 8.0) containing 1% glycerol, 1 mM EDTA, 0.5 mM PMSF and 2 mM benzamidine and centrifuged. Equal protein amounts from different treatments were electrophoresed on 12% SDS-polyacrylamide gels. Proteins were electro-transferred to Immobilon-P membranes. The membranes were blocked with 5% non-fat dry milk in Trisbuffered saline (TBS; pH 8.0) containing 0.1% Tween 20 for 3 hours, and subsequently incubated with appropriate primary antibodies. Antigen-antibody complexes were visualized by enhanced chemiluminiscence (Pierce Company). Band intensities were quantified using a Bio-Rad Versa Doc Imaging system.
# Cells were trypsinized, washed and MGMT activity was determined in cell extracts (top panel). The same extracts were western blotted for MGMT protein. WB, western blot. […] Cells were exposed to CuDSF and analyzed for MGMT activity and protein as above. […] To delineate the appropriate time for alkylating drug treatments following MGMT inhibition, next, the time course of MGMT depletion by these three interventions was studied.
# At times indicated, MGMT activity and protein levels were assessed.
# MGMT performs a stoichiometric reaction to accomplish the DNA repair and is not recycled to its active form. Instead, the inactivated protein is degraded and fresh translation has to occur to restore the MGMT levels in cells. The rate and extent of this recovery is an important factor in the extent of damage introduced to the normal cell genomes such as the bone marrow stem cells. […] MGMT protein and activity levels were analyzed during the depletion and repletion (FIG. 3B).
structure (smiles),measurement,setting,value
"Nc1nc(OCc2ccccc2)c2nc[nH]c2n1 [BG, O^6-benzylguanine]",duration of suppression of DNA repair,MGMT [1],48 to 72 h
same,loss/inhibition of MGMT activity at 12 hours post-drug treatment,"MGMT [2]; 50 μM, 12 hours",100%
same,"recovery of MGMT activity, % of control levels",MGMT [2]; 48 hours post-drug in drug-free media after 50 μM for 12 hours,25 % of control levels
